The source made the active and inactive calls. The calls are words filed in the database; no cut-off is given here.
Molecular target: Histone deacetylase 3 (Homo sapiens, UniProt O15379)
Sequence (O15379 whole entry): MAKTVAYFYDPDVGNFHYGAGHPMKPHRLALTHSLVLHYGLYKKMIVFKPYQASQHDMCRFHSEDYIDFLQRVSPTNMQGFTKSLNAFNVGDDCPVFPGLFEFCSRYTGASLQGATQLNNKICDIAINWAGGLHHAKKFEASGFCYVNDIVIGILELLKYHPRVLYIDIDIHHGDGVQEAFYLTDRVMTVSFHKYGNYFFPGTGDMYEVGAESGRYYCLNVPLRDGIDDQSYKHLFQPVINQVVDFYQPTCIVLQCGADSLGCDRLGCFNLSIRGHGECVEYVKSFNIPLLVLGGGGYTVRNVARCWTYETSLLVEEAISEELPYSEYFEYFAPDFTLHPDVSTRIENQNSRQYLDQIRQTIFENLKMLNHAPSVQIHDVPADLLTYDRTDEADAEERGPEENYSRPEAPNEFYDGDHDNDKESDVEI
Experiment: Inhibition of recombinant human HDAC3 expressed in baculovirus infected High5 insect cells using Ac-Lys-Tyr-Lys(epsilon-acetyl)-AMC as substrate after 24 hrs by fluorescence assay
Conditions: not given
In the case of `CCc1c2c(nc3ccc(O)cc13)-c1cc3c(c(=O)n1C2)COC(=O)[C@@]3(CC)OC(=O)CCCCCCC(=O)O`, the IC50 is reported as 37.2 µM. For `CCc1c2c(nc3ccc(OC(=O)N4CCN(C(=O)CCCCCCCCCC(=O)NO)CC4)cc13)-c1cc3c(c(=O)n1C2)COC(=O)[C@]3(O)CC`, the IC50 was 24.6 µM. `CCc1c2c(nc3ccc(OC(=O)N4CCN(C(=O)CCCCCCC(=O)NO)CC4)cc13)-c1cc3c(c(=O)n1C2)COC(=O)[C@]3(O)CC` showed an IC50 of 9.32 µM. For `CCc1c2c(nc3ccc(O)cc13)-c1cc3c(c(=O)n1C2)COC(=O)[C@@]3(CC)OC(=O)CCCCCC(=O)NO`, the IC50 was 0.1 µM.

Molecular target: T1, Protein deacetylase HDAC6 (Homo sapiens) (UniProt Q9UBN7)
T1 sequence (whole entry): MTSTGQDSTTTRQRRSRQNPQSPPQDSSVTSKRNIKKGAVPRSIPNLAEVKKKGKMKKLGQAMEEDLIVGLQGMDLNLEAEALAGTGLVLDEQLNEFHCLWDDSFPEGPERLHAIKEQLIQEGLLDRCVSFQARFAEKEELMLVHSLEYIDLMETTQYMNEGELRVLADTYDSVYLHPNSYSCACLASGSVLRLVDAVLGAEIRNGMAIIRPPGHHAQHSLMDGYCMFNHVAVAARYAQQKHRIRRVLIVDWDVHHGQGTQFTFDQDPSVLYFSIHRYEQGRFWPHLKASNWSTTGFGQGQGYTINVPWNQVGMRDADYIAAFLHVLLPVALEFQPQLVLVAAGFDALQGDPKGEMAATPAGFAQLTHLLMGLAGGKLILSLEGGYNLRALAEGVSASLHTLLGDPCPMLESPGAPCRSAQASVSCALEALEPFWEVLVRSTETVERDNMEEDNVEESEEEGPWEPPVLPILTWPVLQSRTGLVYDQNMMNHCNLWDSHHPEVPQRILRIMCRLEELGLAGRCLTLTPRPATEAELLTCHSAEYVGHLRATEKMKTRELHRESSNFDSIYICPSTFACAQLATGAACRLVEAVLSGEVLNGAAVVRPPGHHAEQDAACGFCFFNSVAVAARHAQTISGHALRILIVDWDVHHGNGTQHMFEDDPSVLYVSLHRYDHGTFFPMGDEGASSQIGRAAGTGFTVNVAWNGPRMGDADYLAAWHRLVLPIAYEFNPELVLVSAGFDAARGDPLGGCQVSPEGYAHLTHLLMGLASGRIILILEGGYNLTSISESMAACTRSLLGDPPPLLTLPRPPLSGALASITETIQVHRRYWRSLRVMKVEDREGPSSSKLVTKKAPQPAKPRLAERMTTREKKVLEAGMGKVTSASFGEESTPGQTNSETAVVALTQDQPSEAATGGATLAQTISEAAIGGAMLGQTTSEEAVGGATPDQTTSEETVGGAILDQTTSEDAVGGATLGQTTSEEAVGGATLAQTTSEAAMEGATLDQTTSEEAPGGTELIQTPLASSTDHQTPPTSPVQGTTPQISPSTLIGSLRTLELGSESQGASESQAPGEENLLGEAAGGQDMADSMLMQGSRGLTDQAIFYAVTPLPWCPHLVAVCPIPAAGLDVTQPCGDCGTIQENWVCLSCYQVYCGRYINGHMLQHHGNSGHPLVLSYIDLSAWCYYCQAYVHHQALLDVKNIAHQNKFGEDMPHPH
Experiment: Inhibition of HDAC6 in human HCT116 cells assessed as increase in acetylated tubulin levels at 1 to 10 uM after 24 hrs by Western blot analysis
Format: cell-based
Conditions: not given
With `CCc1c2c(nc3ccc(O)cc13)-c1cc3c(c(=O)n1C2)COC(=O)[C@@]3(CC)OC(=O)CCCCCCC(=O)O` the inhibition was “Active”. For `CCc1c2c(nc3ccc(O)cc13)-c1cc3c(c(=O)n1C2)COC(=O)[C@@]3(CC)OC(=O)CCCCCC(=O)NO`, the inhibition was “inactive”.

Molecular target: T1, Protein deacetylase HDAC6 (Homo sapiens)
Experiment: Inhibition of HDAC6 in human HCT116 cells assessed as increase in acetylated tubulin levels at 0.03 to 3 uM after 24 hrs by Western blot analysis
Format: cell-based
Conditions: not given
In the case of `CCc1c2c(nc3ccc(OC(=O)N4CCN(C(=O)CCCCCCCCCC(=O)NO)CC4)cc13)-c1cc3c(c(=O)n1C2)COC(=O)[C@]3(O)CC`, the inhibition is reported as “Active”.

Tested on: not listed separately
Experiment: Stability of the compound in mouse plasma at 50 uM by HPLC analysis
Format: ADME, cell-free
Conditions: not given
With `CCc1c2c(nc3ccc(OC(=O)N4CCN(C(=O)CCCCCCC(=O)NO)CC4)cc13)-c1cc3c(c(=O)n1C2)COC(=O)[C@]3(O)CC` the Stability was “Unstable”.

Molecular target: T1, Protein deacetylase HDAC6 (Homo sapiens)
Experiment: Inhibition of HDAC6 in human A549 cells assessed as increase in acetylated tubulin levels at 0.3 to 30 uM after 24 hrs by Western blot analysis
Format: cell-based
Conditions: not given
With `CCc1c2c(nc3ccc(OC(=O)N4CCN(C(=O)CCCCCCC(=O)NO)CC4)cc13)-c1cc3c(c(=O)n1C2)COC(=O)[C@]3(O)CC` the inhibition was “Active”.

Tested on: not listed separately
Experiment: Stability of the compound in human plasma at 50 uM by HPLC analysis
Format: ADME, cell-free
Conditions: not given
In the case of `CCc1c2c(nc3ccc(OC(=O)N4CCN(C(=O)CCCCCCC(=O)NO)CC4)cc13)-c1cc3c(c(=O)n1C2)COC(=O)[C@]3(O)CC`, the Stability is reported as “Stable”.

Tested on: HCT-116
Experiment: Antiproliferative activity against human HCT116 cells after 72 hrs by SRB assay
Format: functional, cell-based
Conditions: HCT-116, 72 h
Work on `CCc1c2c(nc3ccc(O)cc13)-c1cc3c(c(=O)n1C2)COC(=O)[C@@]3(CC)OC(=O)CCCCCCC(=O)O` yielded an IC50 of 0.029 µM. Work on `CCc1c2c(nc3ccc(OC(=O)N4CCN(C(=O)CCCCCCCCCC(=O)NO)CC4)cc13)-c1cc3c(c(=O)n1C2)COC(=O)[C@]3(O)CC` yielded an IC50 of 3.22 µM. For `CCc1c2c(nc3ccc(OC(=O)N4CCN(C(=O)CCCCCCC(=O)NO)CC4)cc13)-c1cc3c(c(=O)n1C2)COC(=O)[C@]3(O)CC`, the IC50 was 6.24 µM. In the case of `CCc1c2c(nc3ccc(O)cc13)-c1cc3c(c(=O)n1C2)COC(=O)[C@@]3(CC)OC(=O)CCCCCC(=O)NO`, the IC50 is reported as 0.0462 µM.

Molecular target: T1, Protein deacetylase HDAC6 (Homo sapiens)
Experiment: Inhibition of HDAC6 in human HCT116 cells assessed as increase in acetylated tubulin levels at 0.3 to 30 uM after 24 hrs by Western blot analysis
Format: cell-based
Conditions: not given
For `CCc1c2c(nc3ccc(OC(=O)N4CCN(C(=O)CCCCCCC(=O)NO)CC4)cc13)-c1cc3c(c(=O)n1C2)COC(=O)[C@]3(O)CC`, the inhibition was “Active”.

Tested on: not listed separately
Experiment: Stability of the compound in PBS at pH 6 at 50 uM by HPLC analysis
Format: physicochemical
Conditions: buffer, pH 6, 50 µM
With `CCc1c2c(nc3ccc(OC(=O)N4CCN(C(=O)CCCCCCC(=O)NO)CC4)cc13)-c1cc3c(c(=O)n1C2)COC(=O)[C@]3(O)CC` the Stability was “Stable”.

Molecular target: T2, Protein deacetylase HDAC6 (Homo sapiens, UniProt Q9UBN7)
T2 sequence (Q9UBN7 whole entry): T1 sequence (whole entry)
Experiment: Inhibition of recombinant human HDAC6 expressed in baculovirus infected High5 insect cells using Boc-Lys (epsilon-acetyl)-AMC as substrate after 3 hrs by fluorescence assay
Conditions: not given
Compound `CCc1c2c(nc3ccc(O)cc13)-c1cc3c(c(=O)n1C2)COC(=O)[C@@]3(CC)OC(=O)CCCCCCC(=O)O` has an IC50 of 6.94 µM. With `CCc1c2c(nc3ccc(OC(=O)N4CCN(C(=O)CCCCCCCCCC(=O)NO)CC4)cc13)-c1cc3c(c(=O)n1C2)COC(=O)[C@]3(O)CC` the IC50 was 4.7 µM. For `CCc1c2c(nc3ccc(OC(=O)N4CCN(C(=O)CCCCCCC(=O)NO)CC4)cc13)-c1cc3c(c(=O)n1C2)COC(=O)[C@]3(O)CC`, the IC50 was 12.2 µM. Work on `CCc1c2c(nc3ccc(O)cc13)-c1cc3c(c(=O)n1C2)COC(=O)[C@@]3(CC)OC(=O)CCCCCC(=O)NO` yielded an IC50 of 0.22 µM.

Molecular target: T1, Protein deacetylase HDAC6 (Homo sapiens)
Experiment: Inhibition of HDAC6 in human A549 cells assessed as increase in acetylated tubulin levels at 1 to 10 uM after 24 hrs by Western blot analysis
Format: cell-based
Conditions: not given
With `CCc1c2c(nc3ccc(O)cc13)-c1cc3c(c(=O)n1C2)COC(=O)[C@@]3(CC)OC(=O)CCCCCCC(=O)O` the inhibition was “Active”. With `CCc1c2c(nc3ccc(O)cc13)-c1cc3c(c(=O)n1C2)COC(=O)[C@@]3(CC)OC(=O)CCCCCC(=O)NO` the inhibition was “inactive”.

Tested on: A549
Experiment: Antiproliferative activity against human A549 cells after 72 hrs by SRB assay
Format: functional, cell-based
Conditions: A549, 72 h
Compound `CCc1c2c(nc3ccc(O)cc13)-c1cc3c(c(=O)n1C2)COC(=O)[C@@]3(CC)OC(=O)CCCCCCC(=O)O` has an IC50 of 0.129 µM. `CCc1c2c(nc3ccc(OC(=O)N4CCN(C(=O)CCCCCCCCCC(=O)NO)CC4)cc13)-c1cc3c(c(=O)n1C2)COC(=O)[C@]3(O)CC` gave an IC50 of 6.73 µM. With `CCc1c2c(nc3ccc(OC(=O)N4CCN(C(=O)CCCCCCC(=O)NO)CC4)cc13)-c1cc3c(c(=O)n1C2)COC(=O)[C@]3(O)CC` the IC50 was 7.23 µM. `CCc1c2c(nc3ccc(O)cc13)-c1cc3c(c(=O)n1C2)COC(=O)[C@@]3(CC)OC(=O)CCCCCC(=O)NO` showed an IC50 of 0.245 µM.

Tested on: not listed separately
Experiment: Stability of the compound in PBS at pH 7.4 at 50 uM by HPLC analysis
Format: physicochemical
Conditions: buffer, pH 7.4, 50 µM
For `CCc1c2c(nc3ccc(OC(=O)N4CCN(C(=O)CCCCCCC(=O)NO)CC4)cc13)-c1cc3c(c(=O)n1C2)COC(=O)[C@]3(O)CC`, the Stability was “Stable”.

Molecular target: Histone deacetylase 1 (Homo sapiens, UniProt Q13547)
Sequence (Q13547 whole entry): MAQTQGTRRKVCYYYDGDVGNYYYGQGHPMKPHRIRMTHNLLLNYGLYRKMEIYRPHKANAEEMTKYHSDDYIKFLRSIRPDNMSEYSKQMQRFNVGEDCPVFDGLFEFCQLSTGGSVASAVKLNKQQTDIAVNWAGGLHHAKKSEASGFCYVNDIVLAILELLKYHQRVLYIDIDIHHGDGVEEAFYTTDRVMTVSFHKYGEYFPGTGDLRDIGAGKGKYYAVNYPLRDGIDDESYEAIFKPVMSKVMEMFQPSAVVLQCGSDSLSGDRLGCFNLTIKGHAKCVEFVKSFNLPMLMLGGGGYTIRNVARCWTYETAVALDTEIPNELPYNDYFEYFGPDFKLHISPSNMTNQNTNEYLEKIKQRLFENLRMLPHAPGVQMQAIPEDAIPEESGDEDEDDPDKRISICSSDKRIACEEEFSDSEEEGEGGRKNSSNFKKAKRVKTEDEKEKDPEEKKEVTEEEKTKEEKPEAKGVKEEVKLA
Experiment: Inhibition of recombinant human HDAC1 expressed in baculovirus infected High5 insect cells using Ac-Lys-Tyr-Lys(epsilon-acetyl)-AMC as substrate after 24 hrs by fluorescence assay
Conditions: not given
Compound `CCc1c2c(nc3ccc(O)cc13)-c1cc3c(c(=O)n1C2)COC(=O)[C@@]3(CC)OC(=O)CCCCCCC(=O)O` has an IC50 of 27.1 µM. `CCc1c2c(nc3ccc(OC(=O)N4CCN(C(=O)CCCCCCCCCC(=O)NO)CC4)cc13)-c1cc3c(c(=O)n1C2)COC(=O)[C@]3(O)CC` gave an IC50 of 17.4 µM. `CCc1c2c(nc3ccc(OC(=O)N4CCN(C(=O)CCCCCCC(=O)NO)CC4)cc13)-c1cc3c(c(=O)n1C2)COC(=O)[C@]3(O)CC` showed an IC50 of 5.57 µM. Compound `CCc1c2c(nc3ccc(O)cc13)-c1cc3c(c(=O)n1C2)COC(=O)[C@@]3(CC)OC(=O)CCCCCC(=O)NO` has an IC50 of 0.11 µM.

Molecular target: T1, Protein deacetylase HDAC6 (Homo sapiens)
Experiment: Inhibition of HDAC6 in human A549 cells assessed as increase in acetylated tubulin levels at 0.03 to 3 uM after 24 hrs by Western blot analysis
Format: cell-based
Conditions: not given
With `CCc1c2c(nc3ccc(OC(=O)N4CCN(C(=O)CCCCCCCCCC(=O)NO)CC4)cc13)-c1cc3c(c(=O)n1C2)COC(=O)[C@]3(O)CC` the inhibition was “Active”.

Reference: ChEMBL document CHEMBL4229532, “A series of camptothecin prodrugs exhibit HDAC inhibition activity” (Bioorg Med Chem, 2018)
